Laboratory results as given in patent EP0796843B1, “1,25-dihydroxy-16,22,23-trisdehydro-cholecalciferol derivatives” (F. HOFFMANN-LA ROCHE AG, priority 1996, dated 1997).

Tests used:
[1] = test system: HL-60 cells; assay: Induction of HL-60 cell differentiation (NBT reduction); assay type: cell-based; settings: 3 days, concentration leading to 50% of maximal differentiation achieved with 100-1000 nM calcitriol, read-out: ED50 (the source's name)
[2] = Calcium tolerance test in mice (highest tolerated dose, body weight); assay type: in vivo; settings: daily subcutaneous administration for 4 consecutive days, dose resulting in zero weight gain during 5 day treatment period
Excerpt: Profound changes in calcium homeostasis strongly affect the weight development of mice.
Mice (25-30 g body weight) received daily subcutaneous administrations of the compound for 4 consecutive days. Body weight was registered just before and at the end of a […] treatment period. The "highest tolerated dose" (HTD) is the dose which results in zero weight gain during this treatment period.

[3] = test system: Human T-cells; assay: Inhibition of γ-interferon release in PHA-stimulated T-cells (ELISA); assay type: cell-based
[4] = test system: HaCaT cell line; assay: Inhibition of keratinocyte proliferation (3H-thymidine uptake); assay type: cell-based, human; settings: HaCaT cells, 3H-thymidine incorporation after 6 days of culture, concentration leading to 50% of control values
[5] = test system: Human T-cell; assay: Inhibition of T-cell proliferation (3H-thymidine, PHA-stimulated); assay type: cell-based
Protocol: Mononuclear cells were isolated from venous blood of healthy donors by centrifugation of buffy coat leucocytes atop Ficoll-Paque. The lymphocytes (70-80% T-cells) were suspended in RPMI 1640 medium supplemented with 10% FCS and adjusted to 10^6 cells/ml. […] of this cell suspension were seeded into flat-bottom microtiter wells and stimulated with […] of PHA. Immediately after seeding, the test compounds listed below in Table V were added to yield final concentrations of between 1x10^-11 M -1 x 10^-6 M. All tests were run in the quadruplicates.
After 3 and 4 days, ^3H-thymidine (5 Ci/mmol) was added to wells at a concentration of […]. Cells were pulse-labeled for the last 6 hours of the growth period. Cells were then harvested on to a 96 well filter plate using a cell harvester. After drying at […] under vacuum for 20-30 minutes, 20 µl of scintillor were added and the radioactivity bound to the filters was counted. Values are expressed as percent controls (samples without test compounds). The concentration leading to 50% of control values is determined graphically and given as IC50 (inhibiting concentration) in Table V. TABLE V

[6] = test system: Sebaceous cells; assay: Inhibition of sebaceous cell proliferation (cell count); settings: adult human sebaceous cells in vitro, amount necessary to inhibit proliferation by 50% vs vehicle control
[7] = human lymphocytes (70-80% T-cells) stimulated with PHA, IFN-g by ELISA on days 3 and 4
[8] = human lymphocytes (70-80% T-cells) stimulated with PHA, 3H-thymidine after 3 and 4 days

C=C1/C(=C\C=C2/CCC[C@]3(C)C([C@H](C)C=C=CC(C)(C)O)=CC[C@@H]23)C[C@@H](O)C[C@@H]1O [1,25-Dihydroxy-16,22R,23-triene-cholecalciferol]
EC50 [1]: 0.22 nM | HTD [2]: 2.5 µg/kg | IC50 [3, 7]: 0.05 nM | IC50 [4]: 0.01 nM | IC50 [5, 8]: 0.55 nM | ED50 ([6]; listed as 1a,25-dihydroxy-16,22R,23-triene-cholecalciferol): 1 nM

C=C1/C(=C\C=C2/CCC[C@]3(C)C([C@H](C)C=C=CC(C)(C)O)=CC[C@@H]23)C[C@@H](O)C[C@@H]1O [1,25-Dihydroxy-16,22S,23-triene-cholecalciferol]
EC50 [1]: 4.8 nM | HTD [2]: 50.0 µg/kg | IC50 [3, 7]: 3 nM | IC50 [4]: 40 nM | IC50 [5, 8]: 6 nM | ED50 ([6]; listed as 1a,25-dihydroxy-16,22S,23-triene-cholecalciferol): 10 nM

C=C1/C(=C\C=C2/CCC[C@]3(C)[C@@H]([C@H](C)CCCC(C)(C)O)CC[C@@H]23)C[C@@H](O)C[C@@H]1O [1,25-Dihydroxy-cholecalciferol, reference compound]
HTD [2]: 0.5 µg/kg | IC50 ([3]; Homo sapiens, T-cell): 0.8 nM | IC50 ([4]; Homo sapiens): 55 nM | IC50 ([5]; Homo sapiens, T-cell): 10 nM | ED50 [6]: 50 nM
